The text below walks through data of patent US20220144847A1, “HETEROCYCLIC COMPOUND, PHARMACEUTICAL COMPOSITION COMPRISING SAME, PREPARATION METHOD THEREFOR, AND USE THEREOF” (Sichuan Kelun-Biotech Biopharmaceutical Co., Ltd., priority 2019, published 2022).

Where two headings read alike, the source gives them in different places.

For data set [1], the system named is human medullary thyroid carcinoma TT cells. Nature of the data set: Efficacy test in mice, subcutaneous xenograft tumor of TT cells. The note with it: 5 mg/kg, PO, BID; TT nude mouse xenograft. It counts as in vivo, Balb/c-nu mouse. The procedure:
Experimental purpose: To evaluate the in vivo efficacy of Compound 17 and BLU-667 in a Balb/c-nu mouse model with a subcutaneous xenograft tumor of human medullary thyroid carcinoma TT cells.
Drug preparation: Compound 17 was dissolved in 0.1 M aqueous solution of H3PO4, and BLU-667 was dissolved in 0.1 M aqueous solution of HOAc, to prepare clear solutions (pH: about 4.0). An aqueous solution of H3PO4 at a pH of about 4.0 was used for the solvent control group. The mode of administration was PO, BID.
Tumor measurement: The tumor diameter was measured with a vernier caliper twice a week. The computing formula of the tumor volume is: V=0.5×a×b^2, where a represents a long diameter of the tumor, and b represents a short diameter of the tumor. Evaluation of tumor growth inhibition rate (TGI (%)) for tumor inhibition efficacy of the compounds: TGI (%)=[(1-(mean tumor volume of a treatment group at the end of drug administration-mean tumor volume of the treatment group at the commencement of drug administration))/(mean tumor volume of a solvent control group at the end of treatment-mean tumor volume of the solvent control group at the commencement of treatment)]×100%.
Statistical analysis: Prism Graphpad5.0 software was used for statistical analysis based on the relative tumor volume at the end of the experiment. The comparison between multiple groups was analyzed by two-way ANOVA, and p<0.05 was considered as a significant difference.
Experimental results: In the TT nude mouse xenograft model of human medullary thyroid carcinoma, Compound 17 has a significant […] anti-tumor effect at a dose of 5 mg/kg. […] Relative tumor growth rate T/C (%)=TRTV/CRTV×100%, where TRTV is the mean relative tumor volume of the test compound group, CRTV is the relative tumor volume of the solvent control group; and the relative tumor volume RTV=Vt/V0, where V0 is the mean tumor volume at the commencement of the administration, and Vt is the mean tumor volume measured on day t after the administration.

A short description of data set [2]: Pharmacokinetics and tissue distribution of compounds in rats. Format: in vivo. As to conditions: male, SD, rat, PO 5 mg/kg; for AUC(0-t): read-out: AUC AUClast; for Cmax: read-out: Peak concentration Cmax; for Kp: read-out: T/P Ratio of AUClast in tissue to plasma; for Tmax: read-out: Time to peak concentration Tmax. The procedure:
By intragastric administration (PO) of BLU-667 (prepared according to Example 5 of WO2017/079140A1) and Compound 17 to male SD rats respectively, the plasma concentrations and the tissue concentrations of BLU-667 and Compound 17 in brains, lungs and thyroid of rats were determined to investigate the pharmacokinetic characteristics. The dosage of administration by PO was 5 mg/kg, and the solvent was 0.5% MC (methylcellulose). With administration by PO, blood samples were collected at different time points (0 h before administration, and 0.25 h, 0.5 h, 1 h, 2 h, 4 h, 6 h, 8 h, and 24 h after administration). The blood samples were anticoagulated with dipotassium edetate, and centrifuged to provide plasma samples, which were stored at −80° C. Rats were sacrificed by exsanguination from abdominal aorta at 0.5 h, 2 h, 8 h, and 24 h after PO administration. Brain, lung and thyroid were collected, washed, and homogenized with normal saline at a certain ratio, to provide tissue samples which were stored at −80° C. The plasma samples and tissue samples were processed with precipitated protein and then analyzed by LC-MS/MS. The pharmacokinetic parameters were computed using WinNonlin 6.3 software and using a non-compartmental model.

Another data set addresses VEGFR2 (Homo sapiens, UniProt P35968). Description: VEGFR2 inhibition experiment (HTRF KinEASE-TK kit). Format: biochemical. The note with it: read-out: Inhibition rate on VEGFR2; for inhibition at 0.1 µM: 100 nM. The essentials:
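HTRF KinEASE-TK format: enzyme and compound were preincubated 30 min at room temperature, then substrate and ATP added for 40 min, followed by cryptate antibody/streptavidin-XL665 detection for 45 min. Inhibition was normalised to DMSO and no-enzyme controls; IC50 from a four-parameter fit.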

Another data set deals with T1, RET-CCDC6 (Homo sapiens, UniProt P07949).
T1 construct: CCDC6 fusion partner (Q16204 for human); the other entry of the earlier key: CCDC6 (Q16204, Coiled-coil domain-containing protein 6)
T1 sequence (P07949 with tags, fused parts or gaps): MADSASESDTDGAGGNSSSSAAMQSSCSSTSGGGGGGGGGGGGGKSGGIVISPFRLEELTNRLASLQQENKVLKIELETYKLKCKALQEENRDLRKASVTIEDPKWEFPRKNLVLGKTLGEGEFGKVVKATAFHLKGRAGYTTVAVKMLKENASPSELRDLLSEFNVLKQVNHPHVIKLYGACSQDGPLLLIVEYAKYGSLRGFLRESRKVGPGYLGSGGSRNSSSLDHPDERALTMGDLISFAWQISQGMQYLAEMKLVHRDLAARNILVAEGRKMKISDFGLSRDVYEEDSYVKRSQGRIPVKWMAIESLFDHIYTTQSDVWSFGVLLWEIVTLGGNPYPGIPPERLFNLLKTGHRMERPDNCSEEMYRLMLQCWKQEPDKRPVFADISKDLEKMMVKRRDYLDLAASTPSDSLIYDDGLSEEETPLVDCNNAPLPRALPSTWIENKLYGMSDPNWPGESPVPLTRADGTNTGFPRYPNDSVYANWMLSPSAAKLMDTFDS
Nature of the data set: RET inhibition experiment (HTRF KinEASE-TK kit), fusion-type RET enzyme. The note with it: read-out: The IC50 (nM) for inhibiting RET-CCDC6. It counts as biochemical. The procedure: (§1) Experimental method: […] After incubation at room temperature for 40 min, TK antibody-cryptate and streptavidin-XL665 were added, and the test was performed after incubation at room temperature for 45 min. With the solvent group (DMSO) as the negative control and the buffer group (without RET enzyme) as the blank control, the relative inhibitory activity percentages (i.e., inhibition rates) of different concentrations of the compounds were computed as per the following formula: […] The relative inhibitory activity percentages of different concentrations of the compounds were plotted with respect to the compound concentrations, and the curve was fitted according to a four-parameter model to compute the IC50 value as per the following formula: y=min+(max-min)/(1+(x/IC50)^(-Hillslope)) where y is the relative inhibitory activity percentage, max is the maximum value of the fitted curve, min is the minimum value of the fitted curve, x is the logarithmic concentration of the compound, and Hillslope is the slope of the curve.

Another data set deals with RET-V804L (Homo sapiens, UniProt P07949, V804L). Description: RET inhibition experiment (HTRF KinEASE-TK kit), mutant RET-V804L. The note with it: read-out: The IC50 (nM) for inhibiting RET-V804L. Format: biochemical. The method, then: as §1
In the next data set the target is RET-V804M (Homo sapiens, UniProt P07949, V804M). Nature of the data set: RET inhibition experiment (HTRF KinEASE-TK kit), mutant RET-V804M. It counts as biochemical. As to conditions: read-out: The IC50 (nM) for inhibiting V804M. The essentials:
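Enzyme was pre-incubated with compound at room temperature for 30 min, then substrate and ATP were added for a 40 min reaction. HTRF signal was read after 45 min with TK antibody-cryptate and streptavidin-XL665. IC50 came from a four-parameter fit of percent inhibition against DMSO and no-enzyme controls.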
Background: TR-FRET usually uses a lanthanide donor and a delayed reading to cut background.

The target of a further data set is RET-M918T (Homo sapiens, UniProt P07949, M918T). Description: RET inhibition experiment (HTRF KinEASE-TK kit), mutant RET-M918T. Format: biochemical. As to conditions: read-out: The IC50 (nM) for inhibiting the enzyme RET-M918T. The method, then: as §1
A further data set concerns the target RET-WT (Homo sapiens, UniProt P07949). Nature of the data set: RET inhibition experiment (HTRF KinEASE-TK kit), wild-type RET enzyme. It counts as biochemical. As to conditions: read-out: The IC50 (nM) for inhibiting RET-WT. The procedure: as §1

Sequence of RET-WT (P07949 29-1114): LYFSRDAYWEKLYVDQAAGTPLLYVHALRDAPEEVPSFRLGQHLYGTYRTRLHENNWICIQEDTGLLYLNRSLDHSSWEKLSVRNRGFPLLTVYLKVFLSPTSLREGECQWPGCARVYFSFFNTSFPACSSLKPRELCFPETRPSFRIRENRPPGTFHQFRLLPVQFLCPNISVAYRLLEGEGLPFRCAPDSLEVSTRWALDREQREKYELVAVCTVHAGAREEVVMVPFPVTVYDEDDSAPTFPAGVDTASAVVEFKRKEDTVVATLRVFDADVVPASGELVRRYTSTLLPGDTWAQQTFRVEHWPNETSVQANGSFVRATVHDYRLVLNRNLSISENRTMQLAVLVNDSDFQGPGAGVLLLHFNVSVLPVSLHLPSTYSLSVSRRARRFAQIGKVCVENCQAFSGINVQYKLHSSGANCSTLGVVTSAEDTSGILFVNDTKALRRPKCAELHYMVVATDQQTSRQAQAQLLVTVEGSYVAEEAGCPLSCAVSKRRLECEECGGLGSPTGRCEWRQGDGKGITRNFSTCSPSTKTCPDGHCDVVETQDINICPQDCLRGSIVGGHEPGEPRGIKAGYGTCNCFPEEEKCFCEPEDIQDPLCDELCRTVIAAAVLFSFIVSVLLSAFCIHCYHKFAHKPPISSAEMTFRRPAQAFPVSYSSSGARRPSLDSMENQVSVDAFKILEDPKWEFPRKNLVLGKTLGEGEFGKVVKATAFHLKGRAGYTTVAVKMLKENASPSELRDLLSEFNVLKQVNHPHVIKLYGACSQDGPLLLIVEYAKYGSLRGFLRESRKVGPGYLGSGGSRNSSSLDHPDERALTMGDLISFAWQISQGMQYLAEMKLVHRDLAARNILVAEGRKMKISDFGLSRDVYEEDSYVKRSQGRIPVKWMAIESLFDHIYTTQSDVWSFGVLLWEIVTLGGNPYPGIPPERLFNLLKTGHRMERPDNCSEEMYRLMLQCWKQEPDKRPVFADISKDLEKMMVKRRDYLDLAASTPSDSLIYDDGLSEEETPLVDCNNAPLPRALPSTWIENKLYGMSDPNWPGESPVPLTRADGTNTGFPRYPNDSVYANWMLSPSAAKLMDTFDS
Sequence of RET-M918T (P07949 29-1114 M918T): as the sequence (P07949 29-1114) above, with M890T counted along it
Sequence of VEGFR2 (P35968 20-1356, species assumed): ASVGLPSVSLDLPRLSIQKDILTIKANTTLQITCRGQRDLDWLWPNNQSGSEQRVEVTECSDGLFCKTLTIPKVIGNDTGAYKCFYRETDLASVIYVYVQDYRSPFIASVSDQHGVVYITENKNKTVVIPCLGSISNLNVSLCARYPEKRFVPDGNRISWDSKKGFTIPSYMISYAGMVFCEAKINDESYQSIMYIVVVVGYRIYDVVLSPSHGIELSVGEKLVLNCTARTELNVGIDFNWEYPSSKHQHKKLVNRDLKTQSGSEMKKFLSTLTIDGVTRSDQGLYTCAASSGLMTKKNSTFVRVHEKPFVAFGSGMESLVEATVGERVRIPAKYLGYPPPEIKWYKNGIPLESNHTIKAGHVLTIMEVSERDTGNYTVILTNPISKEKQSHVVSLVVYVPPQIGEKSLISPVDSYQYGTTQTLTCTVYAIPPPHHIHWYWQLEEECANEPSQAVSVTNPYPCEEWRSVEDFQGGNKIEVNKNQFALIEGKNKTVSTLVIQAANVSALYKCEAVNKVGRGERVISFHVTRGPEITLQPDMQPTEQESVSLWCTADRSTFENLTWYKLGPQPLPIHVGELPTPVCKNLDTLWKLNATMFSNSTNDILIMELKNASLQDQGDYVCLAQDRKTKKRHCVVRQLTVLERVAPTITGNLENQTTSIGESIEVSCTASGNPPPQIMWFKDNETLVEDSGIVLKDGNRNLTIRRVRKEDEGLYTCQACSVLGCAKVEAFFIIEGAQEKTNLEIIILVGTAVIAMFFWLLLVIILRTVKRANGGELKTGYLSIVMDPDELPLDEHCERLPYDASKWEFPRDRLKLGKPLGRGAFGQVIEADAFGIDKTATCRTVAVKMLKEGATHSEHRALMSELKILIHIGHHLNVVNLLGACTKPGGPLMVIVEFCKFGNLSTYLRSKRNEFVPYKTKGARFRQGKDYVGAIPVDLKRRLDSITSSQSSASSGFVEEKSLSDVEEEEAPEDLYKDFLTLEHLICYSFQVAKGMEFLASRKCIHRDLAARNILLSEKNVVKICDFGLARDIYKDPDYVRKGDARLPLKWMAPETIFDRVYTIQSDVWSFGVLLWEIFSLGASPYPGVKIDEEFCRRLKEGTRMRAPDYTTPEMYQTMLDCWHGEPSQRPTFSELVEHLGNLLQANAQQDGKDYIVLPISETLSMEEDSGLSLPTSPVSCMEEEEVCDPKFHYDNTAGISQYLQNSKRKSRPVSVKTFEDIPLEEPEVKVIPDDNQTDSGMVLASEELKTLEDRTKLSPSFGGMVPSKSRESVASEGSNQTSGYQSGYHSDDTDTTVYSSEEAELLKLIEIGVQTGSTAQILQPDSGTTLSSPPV
Sequence of RET-V804L (P07949 29-1114 V804L): as the sequence (P07949 29-1114) above, with V776L counted along it
Sequence of RET-V804M (P07949 29-1114 V804M): as the sequence (P07949 29-1114) above, with V776M counted along it

Take `CO[C@]1(C(=O)N[C@@H](C)c2ccc(-n3cc(F)cn3)nc2)CC[C@H](c2nc(C)cc(Nc3cc(C)[nH]n3)n2)CC1` [BLU-667, reference compound]: in data set [1], the “Relative tumor growth rate T/C” value stood at 33.62% and the “Tumor growth inhibition rate TGI” value came to 88.82%. Also, in data set [2] (brain), the AUC(0-t) stood at 157 ng·h/mL, the Cmax was 30.8 ng/mL, the Kp was determined as 0.018 and the Tmax was 30 min. Moreover, in data set [2] (lung), the AUC(0-t) worked out at 25100 ng·h/mL, the Cmax came to 3570 ng/mL, the Kp turned out to be 2.9 and the Tmax turned out to be 30 min. For the same molecule, in data set [2] (plasma), the AUC(0-t) turned out to be 8650 ng·h/mL, the Cmax was 1490 ng/mL, the Kp turned out to be 1 and the Tmax was determined as 60 min. Also, in data set [2] (thyroid), the AUC(0-t) was 6350 ng·h/mL, the Cmax stood at 888 ng/mL, the Kp is 0.73 and the Tmax is 30 min.
In the case of `Cc1cc(Nc2cc(C)[nH]n2)nc(-c2ccc(N3CC4CC(C3)N4Cc3ccc(-n4cccn4)nc3)nc2)n1` [Compound 60, 2-(6-(6-((6-(1H-pyrazol-1-yl)pyridin-3-yl)methyl)-3,6-diazabicyclo[3.1.1]heptan-3-yl)pyridin-3-yl)-6-methyl-N-(5-methyl-1H-pyrazol-3-yl)pyrimidin-4-amine], at VEGFR2, the inhibition at 0.1 µM is 65%. Also, the half-inhibitory concentration (IC50) at RET-CCDC6 came to 3.99 ± 0.79 nM; on RET-V804L, 5.07 ± 0.4 nM; on RET-V804M, 3.77 ± 0.52 nM; on RET-M918T, 1.29 ± 0.27 nM; on RET-WT, 2.7 ± 0.69 nM.
`Cc1cc(Nc2cc(C)[nH]n2)nc(-c2ccc(N3CC4CC(C3)N4Cc3ccc(-n4ccc(C5CC5)n4)nc3)nc2)n1` [Compound 120, 2-(6-(6-((6-(3-cyclopropyl-1H-pyrazol-1-yl)pyridin-3-yl)methyl)-3,6-diazabicyclo[3.1.1]heptan-3-yl)pyridin-3-yl)-6-methyl-N-(5-methyl-1H-pyrazol-3-yl)pyrimidin-4-amine]: the inhibition at 0.1 µM at VEGFR2 came to 28%. Also, the half-maximal inhibitory concentration (IC50) at RET-CCDC6 stood at 18.7 ± 7.27 nM; at RET-V804L, 10.1 ± 1.05 nM; at RET-V804M it was 9.12 ± 1.85 nM; at RET-M918T it was 15.8 ± 3.65 nM; at RET-WT, 7.33 ± 1.19 nM.
On to `Cc1cc(Nc2cc(C)[nH]n2)nc(-c2ccc(N3CC4CC(C3)N4Cc3ccc(-n4ncc(F)c4C)nc3)nc2)n1` [Compound 122, 2-(6-(6-((6-(4-fluoro-5-methyl-1H-pyrazol-1-yl)pyridin-3-yl)methyl)-3,6-diazabicyclo[3.1.1]heptan-3-yl)pyridin-3-yl)-6-methyl-N-(5-methyl-1H-pyrazol-3-yl)pyrimidin-4-amine], for which, on VEGFR2 (300 nM), the inhibition at 0.3 µM came out at 67%. Also, the IC50 on RET-CCDC6 turned out to be 2.91 ± 0.41 nM; at RET-V804L, 4.79 ± 1.68 nM; at RET-V804M it was 3.33 ± 0.75 nM; at RET-M918T, 4.03 ± 0.66 nM; on RET-WT, 2.35 ± 0.24 nM.

What is called inhibition is how much of the control response was suppressed. By IC50 is commonly meant the concentration that inhibits the measured activity by half.
